Measurements: patent publication US20200283728A1, “MODIFIED T CELLS AND USES THEREOF” (MUSC FOUNDATION FOR RESEARCH DEVELOPMENT, priority 2017, published 2020)

Assays:
human T cells [1] = experiment: RNA sequencing of CAL-101 or AKTi treated human T cells; format: cell-based; settings: vs vehicle
Description: Library preparation: mRNA libraries were prepared in triplicate from each donor using the TruSeq RNA V2 kit(Illumina). Cleaved RNA fragments were copied into first strand cDNA then underwent second strand cDNA synthesis. End repair of cDNA fragments, single ‘A’ base addition and ligation to the adapter followed. The product was then purified and enriched with PCR to create the final cDNA library. Transcriptome sequencing: cDNA libraries were clonally clustered onto the sequencing flow cell using the c-BOT (Illumina) Cluster Generation Station and Hiseq Rapid Paired-End Cluster Kit v2 (Illumina). Clustered flow cells were sequenced on the Illumina HiSeq2500 Sequencing System using the Hiseq Rapid SBS Kit V2 (Illumina). Analysis: Differential gene expression analysis contrasting the factors representing different treatment protocols (CAL101 vs Vehicle; or AKTi vs Vehicle) was performed by running kallisto on the raw paired-end RNA sequencing data (in FASTQ format) to estimate transcript-level read counts based on Ensembl GRCh37 cDNA assembly for each sample (NCBI GEO database Accession Number: GSE101497). Estimated transcript-level counts were aggregated across official gene symbols using the tximport package with mapping provided by the biomaRt utility. […]

pmel-1 CD8^+ T cells = experiment: pmel-1 CD8+ T cells primed with AKTi or CAL-101 in culture: phenotype and expansion; format: cell-based, mouse
Description: (§1) Pmel-1 CD8^+ T cells were prepared from whole splenocytes activated using 1 μM hgp100 peptide+100 IU rhIL-2/mL. Starting 3 hours after initial activation, cells were treated with either DMSO vehicle, AKT inhibitor VIII (AKTi) (Calbiochem), or CAL-101 (Selleckchem) at indicated doses. Cells were supplemented with culture media containing 100 IU rhIL-2/mL and vehicle or drug when expanded. Human Normal Donor Peripheral T cells: Polyclonal CD3^+ T cells were prepared via negative bead selection (Dynal) from peripheral blood lymphocytes and activated using CD3/CD28 beads (Gibco) with 100 IU rhIL-2/mL DMSO vehicle, 1 μM or 10 μM AKTi or CAL-101 throughout culture as indicated. On day 2 of culture, T cells were engineered to be mesothelin specific via lentiviral transduction with an anti-mesothelin chimeric antigen receptor (CAR) which contained a single-chain variable fragment (scFv) fusion protein specific for mesothelin and linked to the T cell receptor ζ (TCRζ) signaling domain and 4-1BB as described previously (Carpenito et al., 2009) (gifts from the June lab).
(§2) Surface staining of Th17 cells was performed with anti-CD4-APCCy7, anti-Vβ14-FITC (BD Biosciences) anti-CD62L-APC, anti-CD44-PerCPCy5.5, anti-CCR6-PE, anti-CD69-PECy7, anti-CCR7-PE, anti-CD27-PE, anti-CD28-PerCPCy5.5, anti-ICOS-PE and anti-CD25-PECy7/FITC (BioLegend) and viability stain (Invitrogen) on day 8. For all intracellular staining of cytokines (anti-IL-17 PerCPCy5.5, anti-IFN-γ-v450, anti-IL-2-FITC, anti-IL-21-APC, anti-IL-22-PE, anti-TNF-α-FITC; BioLegend) and transcription factors (anti-RORγt-APC, anti-cMaf-PerCPCy5.5, anti-STAT-3-PE, anti-FoxP3-FITC/PE, anti-T-bet-v450; eBiosciences), cells were stimulated for 4-5 h with 50 ng/mL PMA and 750 ng/mL ionomycin (Sigma-Aldrich). Additional antibodies used include: CD127-PECy7 clone A019D5, CD25-APCCy7 clone BC96, CD4-APCCy7 OKT4, CD45RO-APC clone UCHL1, CD62L-FITC clone DREG-56, CD8-PerCPCy5.5 clone SKI, TIM3-PE clone F38-2E2 (biolegend); CCR7-PECy7 clone CCR7, CD8-V450 clone RPA-T8, PD1-FITC clone M1H4, (BD Biosciences). Antibodies used for mouse cell analysis: CD127-PE/V450 clone A7R34, CD25-FITC clone 7D4, CD44-PerCPCy5.5/FITC clone IM7, CD69-PECy7 clone HI.2F3, CD8-PerCPCy5.5 clone 53-6.7, CD8-PECy7 clone YTS156.7.7, PD1-PerCPCy5.5 clone 29F.1A12 V[…]13-PE/APC clone MR12-3/MR12-4 (Biolegend), CD4-APCCy7 clone RM4-5, CD62L-APC clone MEL-14, KLRG1-APC/V450 clone 2F1 (BD). After 1 h, Monensin (BioLegend) was added per manufacturer's instructions. After surface staining, intracellular staining for cytokines and transcription factors was performed using Fixation and Permeabilization buffers (BioLegend) and Foxp3 Staining Buffers (eBioscience), respectively. Flow cytometry acquisition was performed on a FACSVerse or Accuri (BD Bioscience). Data were analyzed with FlowJo software (TreeStar). For experiments with sorted cells, CD8^+Vb13^+ T cells were sorted from pmel-1 cultures using Dynabeads untouched mouse CD8^+ T cell kit (Invitrogen) and a FACSAria cell sorting machine (BD Biosciences).

human CD3^+ T cells = experiment: Human CD3+ T cells expanded with CD3/CD28 beads under CAL-101 or AKTi; format: cell-based
Description: as §1, §2

human T cells [2] = experiment: Western blot of nuclear β-catenin, Lef1, Tcf7 in human T cells; format: cell-based
Description: (§3) Nuclear and cytoplasmic protein were isolated by lysis using Nuclear and Cytoplasmic Extraction Reagent with Protease&Phosphatase Inhibitor Cocktail (ThermoScientific). Protein concentration was quantified using […] (ThermoScientific) according to the manufacturer's instructions. 10 to 30 μg of total protein was separated on a Mini-PROTEAN TGX, Any kD™ gel, followed by transfer onto PVDF membrane (Bio-Rad). The membranes were blocked with 5% BSA in TBS buffer containing 0.5% Tween20. The membranes were then incubated overnight at 4° C. with the primary antibodies to β-catenin (BD Bioscience), p110δ, Tcf7 (Abcam), RORγt (Affymetrix) phospho-Akt, total-Akt, STAT-3, Histone-3, Lef1 (abcam), and GAPDH (Cell Signaling) at the concentration recommended by manufactures. Subsequently, membranes were washed and incubated for 1 h at room temperature with (HRP)-conjugated goat antibodies to mouse or rabbit IgG (Cell Signaling). For detection of protein, chemiluminescence method was performed using Western ECL Blotting Substrate (Bio-Rad) followed by X-ray film-based imaging method (ThermoScientific). Quantification of optical density performed using Fiji analysis software (NIH).

[3] = test system: ICOS-activated Th17 cells; experiment: Transcription factor expression (RORγt, cMaf, STAT-3) in ICOS-activated Th17 cells; format: cell-based, mouse; settings: day 8
Description: (§4) Expansion of Th17 cells with Wnt/β-catenin and PI3K inhibitors in vitro: TRP-1 splenocytes were activated with irradiated (10Gy) C57BL/6 splenocytes pulsed with TRP-1 peptide (1 μM) added at a 5:1 ratio in 24-well plates (1 mL media containing 1.5×10^6 cells/well). TRP-1 splenocytes were co-stimulated with soluble ICOS agonist (Clone 398.4A, BioLegend) and polarized toward Th17 phenotype as describe above. For in vitro expansion from day 0 of culture 10 μM Ly294002 (Cayman Chemical) or 10 μM CAL-101 (Selleckchem) and/or 60 μM indomethacin (Sigma-Aldrich) was added. Also dimethylosulfoxide 0.01% (Sigma-Aldrich) was added as a control. Th17 cultures were also supplemented with hrIL-2 (100 IU/mL) and rmIL-23 ([…]; R&D). Medium, including cytokines and inhibitors was refreshed every 2-3 days.
as §3, with “Subsequently, membranes were washed and incubated for 1 h at room temperature with (HRP)-conjugated goat antibodies to mouse or rabbit IgG (Cell Signaling). For detection of protein, chemiluminescence method was performed using Western ECL Blotting Substrate (Bio-Rad) followed by X-ray film-based imaging method (ThermoScientific).” left out
Surface staining of Th17 cells was performed with anti-CD4-APCCy7, anti-Vβ14-FITC (BD Biosciences) anti-CD62L-APC, anti-CD44-PerCPCy5.5, anti-CCR6-PE, anti-CD69-PECy7, anti-CCR7-PE, anti-CD27-PE, anti-CD28-PerCPCy5.5, anti-ICOS-PE and anti-CD25-PECy7/FITC (BioLegend) and viability stain (Invitrogen) on day 8. […] Data were analyzed with FlowJo software (TreeStar). […]

[4] = test system: ICOS-activated Th17 cells; experiment: Memory and regulatory phenotype of ICOS-stimulated Th17 cells expanded with inhibitors (flow cytometry); format: cell-based, mouse
Description: as §4
Surface staining of Th17 cells was performed with anti-CD4-APCCy7, anti-Vβ14-FITC (BD Biosciences) anti-CD62L-APC, anti-CD44-PerCPCy5.5, anti-CCR6-PE, anti-CD69-PECy7, anti-CCR7-PE, anti-CD27-PE, anti-CD28-PerCPCy5.5, anti-ICOS-PE and anti-CD25-PECy7/FITC (BioLegend) and viability stain (Invitrogen) on day 8. For all intracellular staining of cytokines (anti-IL-17 PerCPCy5.5, anti-IFN-γ-v450, anti-IL-2-FITC, anti-IL-21-APC, anti-IL-22-PE, anti-TNF-α-FITC; BioLegend) and transcription factors (anti-RORγt-APC, anti-cMaf-PerCPCy5.5, anti-STAT-3-PE, anti-FoxP3-FITC/PE, anti-T-bet-v450; eBiosciences), cells were stimulated for 4-5 h with 50 ng/mL PMA and 750 ng/mL ionomycin (Sigma-Aldrich). Additional antibodies used include: CD127-PECy7 clone A019D5, CD25-APCCy7 clone BC96, CD4-APCCy7 OKT4, CD45RO-APC clone UCHL1, CD62L-FITC clone DREG-56, CD8-PerCPCy5.5 clone SKI, TIM3-PE clone F38-2E2 (biolegend); CCR7-PECy7 clone CCR7, CD8-V450 clone RPA-T8, PD1-FITC clone M1H4, (BD Biosciences). […] Data were analyzed with FlowJo software (TreeStar). […]

[5] = test system: ICOS-activated Th17 cells; experiment: Cytokine production of ICOS-stimulated TRP-1 Th17 cells expanded with inhibitors (intracellular FACS); format: cell-based, mouse
Description: as §4, §2

Wnt/β-catenin pathway = Wnt/β-catenin pathway expression in Th17 cells (Western blot, real-time PCR); format: cell-based, mouse; settings: re-stimulation in vitro; compared to control Th17 cells
Description: Total RNA isolation was performed using the Trizol method (Life Technologies) according to the manufacturer's procedure. RNA quantity and purity was assessed using a NanoDrop ND-1000. 1 μg total RNA was transcribed with Transcriptor First Strand cDNA Synthesis Kit (Roche). qReal-time PCR was performed on LightCycler480 machine following manufacturer's protocols (Roche). Probes utilized include Rorc, IL-17, Cmaf IL-21, Cpt-1a, Tcf-7, Lef-1, Cnnb1. All probes are commercially available (ABI). Relative gene expression was determined by the comparative CT method (45). β-actin was used as housekeeping gene.
as §3

[6] = 8 days of expansion, CAL-101 10 μM, Indo 60 μM, Ly294002 10 μM, vs un-treated Th17 cells

O=c1[nH]c2ccccc2n1C1CCN(Cc2ccc(-c3nc4cc5[nH]cnc5cc4nc3-c3ccccc3)cc2)CC1 [AKTi]
effector transcripts Fos, JunB, Gzmb, Ifng (human T cells [1]): down-regulated
logarithmic expansion of mouse pmel-1 CD8+ T cells (pmel-1 CD8^+ T cells; 10 μM drug): neither 10 μM AKTi or 10 μM CAL-101 impaired
CD69 expression (pmel-1 CD8^+ T cells; 5 days of culture): decreased
cells expressing CD62L (pmel-1 CD8^+ T cells; 5 days of culture, vehicle 65%): nearly all
CD25 expression (pmel-1 CD8^+ T cells; in culture): slightly reduced
CD127 expression (pmel-1 CD8^+ T cells; in culture): substantially elevated
CD25 expression (human CD3^+ T cells): did not impact
CD45RO levels (human CD3^+ T cells): similar
growth of human T cells (human CD3^+ T cells; 10 μM drug, 8 days): dramatically inhibited growth
CD62L expression (human CD3^+ T cells; over vehicle): slightly increased
TIM3 expression (human CD3^+ T cells; post-activation, vs untreated T cells): prevented the up-regulation
nuclear Lef1 protein (human T cells [2]): slightly higher, though not statistically significant
nuclear Tcf7 protein (human T cells [2]; over vehicle): did not

CC[C@H](Nc1ncnc2[nH]cnc12)c1nc2cccc(F)c2c(=O)n1-c1ccccc1 [CAL-101]
CD62L+ cells before transfer (pmel-1 CD8^+ T cells; sort experiment, bulk vehicle 37%): 97%
cMaf expression ([3]; control 62.9±4.8%): 42.5±3.9%
RORγt expression ([3]; control 65.5±9.5%): 21.9±8.1%
STAT-3 expression ([3]; control approximately 83%): 13.8±5.2%

O=c1cc(N2CCOCC2)oc2c(-c3ccccc3)cccc12 [Ly294002, 2-(4-morpholinyl)-8-phenyl-4H-1-benzopyran-4-one]
FoxP3 and CD25 expression ([4]; cultured 8 days and upon secondary stimulation in vitro): expressed more FoxP3 and CD25
central memory phenotype (CD44^highCD62L^high) ([4]; day 8 in vitro): also supported generation of TCM17 cells
IFN-γ production [5, 6]: suppress
IL-17A production [5, 6]: suppress
cytokine secretion pattern overall ([5]; compared with the results for CAL-101 or Indo plus CAL-101): Similarly results were obtained
Tcf7 protein level after re-stimulation (Wnt/β-catenin pathway): could not replace the CAL-101 effect on Tcf7 overexpression
